Literature values in paper PMC6340882, “Targeting protein kinase CK2 and CDK4/6 pathways with a multi-kinase inhibitor ON108110 suppresses pro-survival signaling and growth in mantle cell lymphoma and T-acute lymphoblastic leukemia” (Oncotarget, 2018).

Test system: mantle cell lymphoma
Parameters: method as in PMID 22383795
Conditions: monotherapy for MCL, patients; cited from earlier work

**Q.** Which overall response rate does the source give for CC(=O)c1c(C)c2cnc(Nc3ccc(N4CCNCC4)cn3)nc2n(C2CCCC2)c1=O [Palbociclib] here?
**A.** 18%
